Test results reported in article PMC5491562, “Effects of semaglutide on beta cell function and glycaemic control in participants with type 2 diabetes: a randomised, double-blind, placebo-controlled trial” (Diabetologia, 2017).

How the values were obtained:
[1] = tested on: participants with type 2 diabetes; settings: in vivo
Description: Adverse events (AEs) were recorded from the time of the participant signing informed consent through to the end of follow-up and were regarded as treatment-emergent adverse events (TEAEs) if beginning (or increasing in severity) after the first study dose and no later than the end of follow-up.

[2] = cited from earlier work
From the text: Semaglutide (Novo Nordisk, Bagsværd, Denmark) is a GLP-1 analogue in development for the once-weekly treatment of type 2 diabetes. It has 94% structural homology to native human GLP-1, and is based on the same […] technology as liraglutide. Important structural modifications make semaglutide more resistant to degradation by dipeptidyl peptidase-4 and improve binding to albumin [16]. These modifications result in a t ½ of approximately 1 week, making semaglutide appropriate for once-weekly s.c. administration, with a fully retained potency.

[3] = Steady-state pharmacokinetics of semaglutide; settings: 1.0 mg s.c. at steady state; estimated in 34 participants; geometric mean (CV, %)
From the text: Blood samples were drawn throughout the trial to assess PK (trough values).
time–concentration curve during a dosing interval), calculated using standard non-
compartmental methods using the linear trapezoidal method on the observed concentrations
using actual time points; maximum concentration (Cmax), derived as the maximum of all
half-life (t½), calculated as log2/λz, where λz was estimated by log-linear regression on the

CC[C@H](C)[C@H](NC(=O)[C@H](Cc1ccccc1)NC(=O)[C@H](CCC(=O)O)NC(=O)[C@H](CCCCNC(=O)COCCOCCNC(=O)COCCOCCNC(=O)CC[C@H](NC(=O)CCCCCCCCCCCCCCCCC(=O)O)C(=O)O)NC(=O)[C@H](C)NC(=O)[C@H](C)NC(=O)[C@H](CCC(N)=O)NC(=O)CNC(=O)[C@H](CCC(=O)O)NC(=O)[C@H](CC(C)C)NC(=O)[C@H](Cc1ccc(O)cc1)NC(=O)[C@H](CO)NC(=O)[C@H](CO)NC(=O)[C@@H](NC(=O)[C@H](CC(=O)O)NC(=O)[C@H](CO)NC(=O)[C@@H](NC(=O)[C@H](Cc1ccccc1)NC(=O)[C@@H](NC(=O)CNC(=O)[C@H](CCC(=O)O)NC(=O)C(C)(C)NC(=O)[C@@H](N)Cc1cnc[nH]1)[C@@H](C)O)[C@@H](C)O)C(C)C)C(=O)N[C@@H](C)C(=O)N[C@@H](Cc1c[nH]c2ccccc12)C(=O)N[C@@H](CC(C)C)C(=O)N[C@H](C(=O)N[C@@H](CCCNC(=N)N)C(=O)NCC(=O)N[C@@H](CCCNC(=N)N)C(=O)NCC(=O)O)C(C)C [semaglutide, Semaglutide]
Anti-semaglutide antibodies [1]: no anti-
Any TEAE, number of participants with events (%) [1]: 28 (75.7)
Gastrointestinal disorders, number of participants with events (%) [1]: 19 (51.4)
Injury, poisoning and procedural complications, number of participants with events (%) [1]: 1 (2.7)
Metabolism and nutrition disorders, number of participants with events (%) [1]: 4 (10.8)
Musculoskeletal and connective disorders, number of participants with events (%) [1]: 1 (2.7)
Nervous system disorders, number of participants with events (%) [1]: 5 (13.5)
Participants with TEAEs [1]: 75.7%
Participants with diarrhoea [1]: 10.8%
Participants with gastrointestinal TEAEs [1]: 51.4%
Participants with nausea [1]: 18.9%
Participants with vomiting [1]: 16.2%
Serious TEAE, number of participants with events (%) [1]: 2 (5.4)
Severe TEAE, number of participants with events (%) [1]: 1 (2.7)
Systolic blood pressure [1]: slightly decreased
TEAE leading to withdrawal, number of participants with events (%) [1]: 1 (2.7)
Vascular disorders, number of participants with events (%) [1]: 3 (8.1)
t½ [2]: approximately 1 week
Vz/F [3]: 11.2 (18.6) l
